# Measurements as given in patent US6642392B1 (priority 1997, dated 2003).
# Read-outs that look alike come from different tables or passages of the source.
# Legend:
# Type in all cases: in vivo
# Phytophthora infestans = settings: for Test D disease control rating (100 = 100% disease control, 0 = no disease control): tomato seedlings sprayed to run-off, inoculated the following day, rating relative to controls, unmarked compounds (standard test rate); for Test D disease control rating: tomato late blight
# [1] = system: Eiysiphe graminis f. sp. tritici; assay: Test A: wheat powdery mildew, preventive spray on wheat seedlings; settings: for Test A disease control rating (100 = 100% disease control, 0 = no disease control): wheat seedlings sprayed to run-off, inoculated the following day, rating relative to controls, unmarked compounds (standard test rate); for Test A disease control rating: wheat powdery mildew
# In short: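 Preventive test: seedlings inoculated with powdery mildew spores one day after run-off spraying of a suspension. Ratings after 7 days in a 20° C growth chamber express percent disease control versus controls.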
# Puccinia recondita = assay: Test B: wheat leaf rust, preventive spray on wheat seedlings; settings: for Test B disease control rating (100 = 100% disease control, 0 = no disease control): wheat seedlings sprayed to run-off, inoculated the following day, rating relative to controls, unmarked compounds (standard test rate); for Test B disease control rating: wheat leaf rust
# In short: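 Preventive test: P. recondita spores were applied one day after a run-off spray of compound suspension on wheat seedlings. Plants had 24 h at 20 °C in saturated air plus 6 days in a 20 °C growth chamber. Scoring is % disease control (100 = full) relative to controls.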
# Botrytis cinerea = assay: Test E: gray mold, preventive spray on cucumber seedlings; settings: for Test E disease control rating (100 = 100% disease control, 0 = no disease control): cucumber seedlings sprayed to run-off, inoculated the following day, rating relative to controls, unmarked compounds (standard test rate); for Test E disease control rating: gray mold on cucumber
# In short: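 Preventive spray on cucumber seedlings used a suspension (3% acetone, 250 ppm Trem 014), applied to run-off one day before inoculation with Botrytis cinerea spores. Plants were held 48 h at 20° C in saturated air, then 5 days at 20° C. Percent disease control was scored relative to untreated plants.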
# Pyricularia oryzae = settings: for Test C disease control rating (100 = 100% disease control, 0 = no disease control): rice seedlings sprayed to run-off, inoculated the following day, rating relative to controls, unmarked compounds (standard test rate); for Test C disease control rating: rice blast
# [2] = 100 = 100% disease control, 0 = no control, unmarked entries (standard test concentration)
# [3] = 100 = 100% disease control, 0 = no control relative to controls, unmarked entries (standard test concentration)
SMILES,Test D disease control rating (Phytophthora infestans; [2]) [%],"Test A disease control rating [1, 3] [%]",Test B disease control rating (Puccinia recondita; [2]) [%],Test E disease control rating (Botrytis cinerea; [2]) [%],Test C disease control rating (Pyricularia oryzae; [2]) [%],also measured
CCC1(C(=O)NC(C)C=Cc2ccc(F)cc2)C(C)C1(Cl)Cl (mixture of isomers) [compound 261],,,,,,"Test D disease control rating (100 = 100% disease control, 0 = no disease control) (Phytophthora infestans): 54%; Test A disease control rating (100 = 100% disease control, 0 = no disease control) [1]: 0%; Test B disease control rating (100 = 100% disease control, 0 = no disease control) (Puccinia recondita): 0%; Test E disease control rating (100 = 100% disease control, 0 = no disease control) (Botrytis cinerea): 0%; Test C disease control rating (100 = 100% disease control, 0 = no disease control) (Pyricularia oryzae): 100%"
CCC1(C(=O)NC(C)COc2cc(C)ccc2Cl)C(C)C1(Cl)Cl (centres unmarked) [compound 127],,,,,,Test D disease control rating (Phytophthora infestans; tested at 40 ppm): 19%; Test A disease control rating ([1]; tested at 40 ppm): 0%; Test B disease control rating (Puccinia recondita; tested at 40 ppm): 0%; Test E disease control rating (Botrytis cinerea; tested at 40 ppm): 0%; Test C disease control rating (Pyricularia oryzae; tested at 40 ppm): 94%
CC(C(C#N)C(=O)NCC=Cc1ccccc1F)C(C)(C)C (mixture of isomers) [compound 75],,,,,,Test D disease control rating (Phytophthora infestans; tested at 40 ppm): 19%; Test A disease control rating ([1]; tested at 40 ppm): 0%; Test B disease control rating (Puccinia recondita; tested at 40 ppm): 0%; Test E disease control rating (Botrytis cinerea; tested at 40 ppm): 0%; Test C disease control rating (Pyricularia oryzae; tested at 40 ppm): 52%
CCC1(C(=O)NC(C)COc2ccccc2SC(F)(F)C(F)F)C(C)C1(Cl)Cl (mixture of isomers) [compound 91],0,74,0,0,53,
CCC1(C(=O)NC(C)COc2ccc(F)cc2Br)C(C)C1(Cl)Cl (centres unmarked) [compound 124],,,,,,Test D disease control rating (Phytophthora infestans; tested at 40 ppm): 0%; Test A disease control rating ([1]; tested at 40 ppm): 83%; Test B disease control rating (Puccinia recondita; tested at 40 ppm): 0%; Test E disease control rating (Botrytis cinerea; tested at 40 ppm): 0%; Test C disease control rating (Pyricularia oryzae; tested at 40 ppm): 0%
CC(COc1cc(F)ccc1Cl)NC(=O)C(C#N)C(C)C(C)(C)C (mixture of isomers) [compound 194],0,0,0,0,100,
C#CC(C)(C)C(C#N)C(=O)NC(C)COc1cc(Cl)ccc1Cl (mixture of isomers) [compound 212],23,0,0,0,100,
"Cc1ccc(OC[C@@H](C)NC(=O)C(C#N)C(C)(C)C)c(Cl)c1 (single isomer, unassigned) [14a]",45,0,0,58,94,
C=CC(C)(C)C(C#N)C(=O)NC(C)COc1cc(F)ccc1F (mixture of isomers) [compound 214],23,0,0,0,100,
C=CC(C)(CC)C(C#N)C(=O)NC(C)COc1cc(Cl)ccc1F (mixture of isomers) [compound 297],,,,,,"Test D disease control rating (100 = 100% disease control, 0 = no disease control) (Phytophthora infestans): 46%; Test A disease control rating (100 = 100% disease control, 0 = no disease control) [1]: 0%; Test B disease control rating (100 = 100% disease control, 0 = no disease control) (Puccinia recondita): 0%; Test E disease control rating (100 = 100% disease control, 0 = no disease control) (Botrytis cinerea): 0%; Test C disease control rating (100 = 100% disease control, 0 = no disease control) (Pyricularia oryzae): 100%"
CC(COc1c(C#N)cccc1C(F)(F)F)NC(=O)C(C#N)C(C)C(C)(C)C (mixture of isomers) [compound 68],82,62,27,0,86,
C=CCc1cccc(C#N)c1OCC(C)NC(=O)C(C#N)C(C)C(C)(C)C (mixture of isomers) [compound 275],,,,,,"Test D disease control rating (100 = 100% disease control, 0 = no disease control) (Phytophthora infestans): 0%; Test A disease control rating (100 = 100% disease control, 0 = no disease control) [1]: 0%; Test B disease control rating (100 = 100% disease control, 0 = no disease control) (Puccinia recondita): 0%; Test E disease control rating (100 = 100% disease control, 0 = no disease control) (Botrytis cinerea): 99%; Test C disease control rating (100 = 100% disease control, 0 = no disease control) (Pyricularia oryzae): 53%"
"CC(COc1ccc(F)cc1)NC(=O)C(C#N)C(C)(C)C (single isomer, unassigned) [4a]",66,0,67,0,99,
